According to US5162320A, “1,4-bis(alkylamino)-2,3-diaza-anthracene-9,10-diones” (Boehringer Biochemia Robin S.p.A., priority 1989, dated 1992):
Like-named read-outs stand apart in the source and are kept apart here.

Columns and labels:
[1] = tested on: human melanoma xenographt; test: M.T.T. assay in vitro, human melanoma; type: cell-based
Experimental: (§1) The antitumor activity of compounds of the present invention was evaluated by "in vitro" M.T.T. assay (T. Mosmann, J. Immunol. Meth. 65 : 55-63, 1983) on human tumor cell lines. M.T.T. assay was chosen according to N.C.I. screening program for new anticancer drugs (Ad hoc review committee proceedings for N.C.I. "in vitro"--"in vivo" Disease oriented Screening project. N.I.H., Bethesda, Md. Dec.8-9, 1986).

[2] = tested on: human cervix epithelioid carcinoma cell line; test: M.T.T. assay in vitro, human cervix epithelioid carcinoma; type: cell-based
Experimental: as §1
Against the same human cervix epithelioid carcinoma cell line the compounds (1) and (2) show ID50 of 1×10^-9 M and 2×10^-10 M, respectively.

[3] = tested on: human colon adenocarcinoma; test: M.T.T. assay in vitro, human colon adenocarcinoma; type: cell-based; details: human colon adenocarcinoma xenographt, read-out: ID50 (the source's name)
Experimental: as §1

[4] = human, in vivo; cited from earlier work
[5] = intraperitoneal, non-tumor bearing animals; cited from earlier work
[6] = human melanoma xenographt, M.T.T. assay, read-out: ID50 (the source's name)
[7] = human cervix epithelioid carcinoma, in vitro, read-out: ID50 (the source's name)
[8] = human cervix epithelioid carcinoma

Row | IC50 [1, 6] | IC50 [2, 7] | IC50 [3] | Structure (SMILES) | cardiotoxicity [4] | other results
1 | 500000 nM |  |  | OCCCNc1nnc(NCCCO)c2cc3ccccc3cc12 [1,4-bis[N-(3-hydroxypropyl)amino]-2,3-diaza-anthracene] |  | 
2 | 1 nM | 1 nM | 10 nM | CN(C)CCNc1nnc(NCCN(C)C)c2c1C(=O)c1ccccc1C2=O [Compound 1, 1,4-bis[N-(2-dimethylaminoethyl)amino]-2,3-diaza-anthracene-9,10-dione] |  | 
3 | 0.1 nM | 0.2 nM | 1 nM | CN(C)CCNc1nnc(N)c2c1C(=O)c1ccccc1C2=O [Compound 2, 1-[N-(2-dimethylaminoethyl)amino]-4-amino-2,3-diaza-anthracene9,10-dione] |  | 
4 | 2 nM |  |  | O=C1c2ccccc2C(=O)c2c(NCCCO)nnc(NCCCO)c21 [Compound 3, 1,4-bis[N-(3-hydroxypropyl)amino]-2,3-diaza-anthracene-9,10-dione] |  | 
5 | 1 nM |  |  | Nc1nnc(NCCCO)c2c1C(=O)c1ccccc1C2=O [Compound 4, 1-[N-(3-hydroxypropyl)amino]-4-amino-2,3-diaza-anthracene-9,10-dione] |  | 
6 |  | 3 nM |  | Nc1nnc(NCCNCCO)c2c1C(=O)c1ccccc1C2=O [Compound 5, 1-[N-(2-(2-hydroxyethylamino)ethyl)amino]-4-amino-2,3-diaza-anthracene-9,10-dione] |  | activity compared with ametantrone [2, 8]: definitely more active than ametantrone; activity compared with mitoxantrone [2, 8]: as active as mitoxantrone
7 |  |  |  | O=C1c2ccccc2C(=O)c2c(NCCNCCO)ccc(NCCNCCO)c21 [ametantrone, 1,4-bis[(2-(2-hydroxyethylamino)ethyl)amino]anthracene-9,10-dione] | some cardiotoxicity | IC50 ([1]; Homo sapiens, read-out: ID50): 20000 nM; IC50 ([2]; Homo sapiens, read-out: ID50): 50000 nM; delayed lethality [5]: not observed
8 |  |  |  | COc1cccc2c1C(=O)c1c(O)c3c(c(O)c1C2=O)C[C@@](O)(C(=O)CO)C[C@@H]3O[C@H]1C[C@H](N)[C@H](O)[C@H](C)O1 [doxorubicin] | severe dose-related cardiotoxicity | toxic side effects [4]: nausea, vomiting and alopecia

Row | Structure (SMILES) | IC50 [1, 6] | IC50 [2, 7] | IC50 [3] | cardiotoxicity [4] | other results
9 | O=C1c2c(O)ccc(O)c2C(=O)c2c(NCCNCCO)ccc(NCCNCCO)c21 [mitoxantrone, 5,8-dihydroxy-1,4-bis[(2-(2-hydroxyethylamino)ethyl)amino]anthracene-9,10-dione] | 1 nM | 5 nM | 100 nM | some clinical cardiotoxicity | major hematological toxicities [4]: leukopenia, neutropenia and bone marrow aplasia; toxic side effects [4]: by far lower than those resulting from doxorubicin; delayed lethality [5]: a delayed lethality
